Experimental data taken from ChEMBL document CHEMBL3098039, “Urea/oxalamide tethered β-lactam-7-chloroquinoline conjugates: synthesis and in vitro antimalarial evaluation” (Eur J Med Chem, 2014).

Experiments:
Plasmodium falciparum = experiment: Antiplasmodial activity against chloroquine-resistant ring stage Plasmodium falciparum W2 assessed as parasitemia after 48 hrs by flow cytometry; format: functional, organism-based; conditions: W2, 48 h
[1] = Cytotoxicity against human HeLa cells assessed as cell viability at 10 uM after 24 hrs by trypan blue assay relative to untreated control; format: cell-based; conditions: read-out: Activity
[2] = Cytotoxicity against human HeLa cells assessed as cell viability at 1 uM after 24 hrs by trypan blue assay relative to untreated control; format: cell-based; conditions: read-out: Activity

Structure (SMILES)	IC50 (Plasmodium falciparum) [µM]	viability at 24 h, 10 µM [1] [%]	viability at 24 h, 1 µM [2] [%]
O=C(NCCNc1ccnc2cc(Cl)ccc12)N[C@H]1C(=O)N(C2CCCCC2)[C@H]1/C=C/c1ccccc1 (mixture of isomers)	0.157		
Cc1ccc(N2C(=O)[C@H](NC(=O)NCCNc3ccnc4cc(Cl)ccc34)[C@@H]2/C=C/c2ccccc2)cc1 (mixture of isomers)	0.0531		
Cc1ccc(N2C(=O)[C@H](NC(=O)NCCCCNc3ccnc4cc(Cl)ccc34)[C@@H]2/C=C/c2ccccc2)cc1 (mixture of isomers)	0.149		
O=C(NCCCNc1ccnc2cc(Cl)ccc12)C(=O)N[C@@H]1C(=O)N(C2CCCCC2)[C@@H]1/C=C/c1ccccc1 (mixture of isomers)	0.121		
O=C(NCCCCNc1ccnc2cc(Cl)ccc12)C(=O)N[C@@H]1C(=O)N(C2CCCCC2)[C@@H]1/C=C/c1ccccc1 (mixture of isomers)	0.0686		
CCOC(=O)N[C@@H]1C(=O)N(C2CCCCC2)[C@@H]1/C=C/c1ccccc1 (racemic)	> 1		
CCOC(=O)N[C@@H]1C(=O)N(c2ccc(C)cc2)[C@@H]1/C=C/c1ccccc1 (racemic)	> 1		
CCOC(=O)C(=O)N[C@@H]1C(=O)N(C2CCCCC2)[C@@H]1/C=C/c1ccccc1 (racemic)	> 1		
CCOC(=O)C(=O)N[C@@H]1C(=O)N(c2ccc(C)cc2)[C@@H]1/C=C/c1ccccc1 (racemic)	> 1		
O=C(NCCCCCCNc1ccnc2cc(Cl)ccc12)N[C@H]1C(=O)N(C2CCCCC2)[C@H]1/C=C/c1ccccc1 (racemic)	0.0521		
Cc1ccc(N2C(=O)[C@H](NC(=O)NCCCNc3ccnc4cc(Cl)ccc34)[C@@H]2/C=C/c2ccccc2)cc1 (racemic)	0.051		
Cc1ccc(N2C(=O)[C@H](NC(=O)NCCCCCCNc3ccnc4cc(Cl)ccc34)[C@@H]2/C=C/c2ccccc2)cc1 (racemic)	0.0424	90	
O=C(NCCNc1ccnc2cc(Cl)ccc12)C(=O)N[C@@H]1C(=O)N(C2CCCCC2)[C@@H]1/C=C/c1ccccc1 (racemic)	0.0613		
O=C(NCCCCCCNc1ccnc2cc(Cl)ccc12)C(=O)N[C@@H]1C(=O)N(C2CCCCC2)[C@@H]1/C=C/c1ccccc1 (racemic)	0.035	90	
Cc1ccc(N2C(=O)[C@@H](NC(=O)C(=O)NCCNc3ccnc4cc(Cl)ccc34)[C@H]2/C=C/c2ccccc2)cc1 (racemic)	0.0448		
Cc1ccc(N2C(=O)[C@@H](NC(=O)C(=O)NCCCNc3ccnc4cc(Cl)ccc34)[C@H]2/C=C/c2ccccc2)cc1 (racemic)	0.0887		
O=C(NCCCCNc1ccnc2cc(Cl)ccc12)C(=O)N[C@@H]1C(=O)N(c2ccc(Cl)cc2)[C@@H]1/C=C/c1ccccc1 (racemic)	0.0822		
O=C(NCCCCCCNc1ccnc2cc(Cl)ccc12)C(=O)N[C@@H]1C(=O)N(c2ccc(Cl)cc2)[C@@H]1/C=C/c1ccccc1 (racemic)	0.0508		
CCOC(=O)C(=O)N[C@@H]1C(=O)N(c2ccc(Cl)cc2)[C@@H]1/C=C/c1ccccc1 (relative stereo)	> 1		
O=C(NCCCNc1ccnc2cc(Cl)ccc12)N[C@H]1C(=O)N(C2CCCCC2)[C@H]1/C=C/c1ccccc1 (relative stereo)	0.073		
O=C(NCCCCNc1ccnc2cc(Cl)ccc12)N[C@H]1C(=O)N(C2CCCCC2)[C@H]1/C=C/c1ccccc1 (relative stereo)	0.193		
C[C@@H]1CC[C@H]2[C@@H](C)C(=O)O[C@@H]3O[C@@]4(C)CC[C@@H]1[C@]32OO4 [ARTEMISININ]	0.0106		
CCNCc1cc(Nc2ccnc3cc(Cl)ccc23)ccc1O [DESETHYL AMODIAQUINE]	0.401		
COc1cccc2c1C(=O)c1c(O)c3c(c(O)c1C2=O)C[C@@](O)(C(=O)CO)C[C@@H]3O[C@H]1C[C@H](N)[C@H](O)[C@H](C)O1 [DOXORUBICIN]			62
